Source: US9636356B2, “Nanoparticle compositions of antibacterial compounds and other uses thereof” (JAWAHARLAL NEHRU CENTRE FOR ADVANCED SCIENTIFIC RESEARCH, priority 2012, dated 2017)

Test system: vancomycin resistant E. faecium (VRE) (ATCC 51559)
Experiment: Antibacterial activity (MIC), modified micro-dilution broth
Assay type: cell-based, Vancomycin resistant Enterococcus faecium
Details: 24 h, read-out: MIC VRE
Protocol: E. coli is cultured in Luria Bertani broth (10 g of tryptone, 5 g of yeast extract, and 10 g of NaCl in 1000 mL of sterile distilled water (pH −7) while S. aureus, P. aeruginosa and MRSA are grown in Yeast-dextrose broth (1 g of beef extract, 2 g of yeast extract, 5 g of peptone and 5 g of NaCl in 1000 mL of sterile distilled water). For E. faecium and VRE, Brain Heart Infusion broth (BHI) is used. K. pneumoniae is grown in nutrient media (3 g of beef extract and 5 g of peptone in 1000 mL of sterile distilled water). For solid media 5% agar is used along with above mentioned composition. The bacterial samples are freeze dried and stored at −80° C. 5 μl of these stocks are added to 3 mL of the nutrient broth and the culture is grown for 6 h at 37° C. prior to the experiments.
Antibacterial activity is determined with the slight modifications of standardized protocols. Water-soluble Q-PIBMI derivatives are assayed in a modified micro-dilution broth format. […] Bacteria, to be tested, grown for 6 h in the suitable media containing ˜10^9 cfu/mL (determined by spread plating method), which is then diluted to 10^5 cfu/mL using nutrient media. […] MIC value is determined by taking the average of triplicate O.D. values for each concentration and plotting it against concentration using Origin Pro 8.0 software. […]

Compound CN[C@H](CC(C)C)C(=O)N[C@H]1C(=O)N[C@@H](CC(N)=O)C(=O)N[C@H]2C(=O)N[C@H]3C(=O)N[C@H](C(=O)N[C@H](C(=O)O)c4cc(O)cc(O)c4-c4cc3ccc4O)[C@H](O)c3ccc(c(Cl)c3)Oc3cc2cc(c3O[C@@H]2O[C@H](CO)[C@@H](O)[C@H](O)[C@H]2O[C@H]2C[C@](C)(N)[C@H](O)[C@H](C)O2)Oc2ccc(cc2Cl)[C@H]1O [Vamcomycin] has an MIC of over 156 µg/mL.
